Source: patent publication EP0791004B1, “ACYLATED BENZYLGLYCOSIDES AS INHIBITORS OF SMOOTH MUSCLE CELL PROLIFERATION” (AMERICAN HOME PRODUCTS CORPORATION, priority 1994, dated 1996)

Assays:
[1] = system: Porcine Smooth Muscle Cell; test: Cytotoxicity, MTT assay; type: cell-based; settings: up to 100 µg/mL; 24 h, medium without serum
Method: Briefly, cells were again grown in 24 well plates to 70 - 80 % confluency and, as before, serum deprived for 24 - 48 h prior to initiation of the experimental protocol. To insure that the MTT assay monitored toxicity rather than proliferation, cells were incubated with 100 µg/mL of drug in fresh medium without serum for 24 h at 37 °C in a humidified CO2 incubator. Upon completion of the compound treatment, MTT (3-[4,5-dimethylthiazol-2-yl]-2,5-diphenyltetrazolium bromide) indicator dye was added for 4 h at 37 °C. Cells were then lysed and aliquots from each well were transferred to a 96 well plate for analysis. Absorbance at 570 nm wavelength with a reference wavelength of 630 nm was recorded using an ELISA plate reader. Results were determined as percent viable using no drug (100% viable) and pre-solubilization (0% viable) standards.

normal human plasma = test: Anticoagulant activity, partial thromboplastin time (APTT) assay; type: biochemical; settings: human citrated plasma
Method: The anticlotting activity of the compounds of this invention was evaluated in a partial thromboplastin time (APTT) assay using normal human plasma collected from 5 donors according to the procedure of Fenichel et. al. (Clin. Chem. 1964, 10, 69). A BBL Fibrometer automatic precision coagulation timer utilizing a 0.3 mL probe was employed. An Ellagic acid activated partial thromboplastin was used for these experiments. This reagent was added to human citrated plasma equilibrated at 37 °C in a plastic well in the clot timer. Calcium at 37 °C was added, the clot timer was started and the time for fibrin clot formation (in seconds) was recorded. The effect of the compounds, added to plasma, over a concentration of 12.5 - 200 µg/mL was determined. […] An unfractionated heparin comparator was used over the concentration range of 1.25 - 10 µg/mL. Clotting tests at all concentrations were run in triplicate. Analysis of variance for a randomized block design was used to determine the significance of differences observed in the clotting times. […]

| Structure (SMILES) | toxicity (MTT, percent viable) [1] | anticoagulant activity (APTT assay) (normal human plasma) |
| --- | --- | --- |
| CCCCC(=O)Nc1cc(CO[C@@H]2O[C@H](COC(C)=O)[C@@H](O[C@H]3O[C@H](COC(C)=O)[C@@H](OC(C)=O)[C@H](OC(C)=O)[C@H]3OC(C)=O)[C@H](OC(C)=O)[C@H]2OC(C)=O)ccc1C [Example 12, Pentanoic Acid N-[5-(Hepta-O-acetyl-β-D-maltosyloxymethyl)-2-methylphenyl]amide] | no toxicity | no anticoagulant activity |
| CC(=O)OC[C@H]1O[C@H](O[C@H]2[C@H](OC(C)=O)[C@@H](OC(C)=O)[C@H](OCc3ccc(C)c(NS(=O)(=O)c4ccc(NS(C)(=O)=O)cc4)c3)O[C@@H]2COC(C)=O)[C@H](OC(C)=O)[C@@H](OC(C)=O)[C@@H]1OC(C)=O [Example 17, N-[5-(Hepta-O-acetyl-β-D-maltosyloxymethyl)-2-methylphenyl]-4-(methanesulfonylamino)benzenesulfonamide] | no toxicity | no anticoagulant activity |
